System: blood vessel growth (angiogenesis)
Assay: The angiogenesis animal model: gel of Example 4 mixed with drug injected to mice, blood vessel growth observed
Type: in vivo
Conditions: drug in gel of Example 4, 0.5 mL gel injected, two months old mice, N=2, after 15 days, gel and adjacent tissue
Procedure: The gel solution prepared according the process of Example 4 was mixed with various drugs listed in tablet at room temperature and is injected (0.5 mL gel each) to two months old mice, N=2. Sacrifice the mice after 15 days and take out the gel and its adjacent tissue to observe the blood vessel growth. The results are listed in table 1 and shown in the color pictures supplemented (please refer to attachments).
The tissue taken out was observed by electron microscope and the results were shown as FIG. 2.
In other words, the endothecium cell and blood vessels of the host can develop in the beehive structure of the gel. The results tell us that co-administrate the gel of the present invention and angiogenesis drug did benefit angiogenesis.

Substance: bFGF: angiogenesis-inducing growth factor, 250 ng/ml, mixed with gel of Example 4
- Blood vessel growth state: Angiogenesis is present

Source: patent US20040013733A1, “Preparation of a biodegradable thermal-sensitive gel system” (Industrial Technology Research Institute, priority 2001, published 2004)
